From patent US11878961B2, “Next generation FKBP52 targeting drugs for the treatment of prostate and breast cancer” (Board of Regents, The University of Texas System, priority 2020, dated 2024) come the findings set out here.

Entries after “also recorded” stand apart in the source; their conditions may differ.

Holding throughout (assay type): cell-based
The subject of assay [1] is estrogen receptor (ER). Briefly: ER-regulated luciferase reporter assay in T47D-KBluc cells (10 pM E2). The following applies: result in words. The method, then: (§1) FIGS. 20A-20D depict PC257 (ZINC3424402) which inhibits FKBP52-Specific AR, GR and ER-Mediated Activity in accordance with an illustrative embodiment. (FIG. 20A) An in silico screen lead to 107 lead molecules for functional screening that lead to an initial hit molecule PC257 (ZINC3424402). (FIG. 20B) MDA-kb2 cells expressing a stably AR- and GR-response luciferase reporter was treated with 200 pM DHT with a range of PC257 (ZINC3424402) concentrations (0, 0.01, 0.1, 1, 10, 25, 50, and 100 uM) for 16-18 hours in order to test for AR-dependent activity. The graphs represent an average of 4 independent receptor mediated luciferase receptor experiments. (FIG. 20C) MDA-kb2 cells expressing a stably AR- and GR-responsive luciferase reporter was treated with 50 nM DEX with a range of PC257 (ZINC3424402) concentrations (0, 0.01, 0.1, 1, 10, 25, 50, and 100 uM) for 16-18 hours in order to test for GR-dependent activity. The graphs represent an average of 4 independent receptor mediated luciferase receptor experiments. […]
(§2) Referring to FIG. 21, hormone-induced, receptor-dependent luciferase reporter gene expression was assessed in the presence of a range of PC257 concentrations for androgen receptor (AR) and glucocorticoid receptor (GR) in MDAkb2 cells, and for progesterone receptor (PR) and estrogen receptor (ER) in T47D cells. […]
(In general: In a reporter assay the amount or activity of a reporter protein is the signal.)

Assay [2] has as its system endogenous AR-dependent gene expression. The experiment in a line: Hormone-dependent FKBP51 and/or PSA protein levels by Western blot and densitometry. The following applies: range of PC257 concentrations, normalized to GAPDH. How it is done: Referring to FIG. 23, hormone-dependent FKBP51 and/or PSA protein levels were assessed by Western blot and densitometry in the indicated cell lines in the presence of a range of PC257 concentrations. GAPDH was used as a loading control and the densitometry data were normalized to GAPDH.

For assay [3], the system named is AR nuclear translocation. The experiment in a line: AR nuclear translocation by fluorescence microscopy in 22Rv1 cells. The following applies: 22Rv1 prostate cancer cells, 75 μM, in the presence of hormone. The method, then: FIG. 24 depicts that PC257 Blocks Androgen-Dependent AR Nuclear Translocation in accordance with an illustrative embodiment.
Referring to FIG. 24, 22Rv1 prostate cancer cells were treated with or without 75 μM in the presence of hormone and AR and FKBP52 cellular localization was assessed by fluorescence microscopy.

In assay [4] the test system is androgen receptor (AR). Briefly: AR-mediated luciferase reporter assay in MDA-kb2 cells (200 pM DHT). The method, then: FIGS. 19A-19B depict identification of novel FKBP52-specific hit compounds in accordance with an illustrative embodiment. Structure-based drug design methodology and in silico library screening was used to identify 107 molecules targeting the FKBP52 PPIase pocket. Molecules were assessed for the ability to inhibit AR-mediated luciferase expression at a single high concentration (25 μM) in MDA-kb2 cells. […] MDA-kb2 cells were treated with 200 pM DHT with a range of derivative concentrations. Molecules in the low μM range will be tested in GR-, PR- and ER-Mediated luciferase assays in order to assess GR-dependent activity, PR-dependent activity and to test the effects of ER-regulated activity. A detailed evaluation of all candidate molecules will be tested in multiple cellular and animal models of prostate cancer.
FIGS. 20A-20D depict PC257 (ZINC3424402) which inhibits FKBP52-Specific AR, GR and ER-Mediated Activity in accordance with an illustrative embodiment. […]
as §2

For assay [5], the system named is progesterone receptor (PR). The experiment in a line: PR-dependent luciferase reporter assay in T47D cells. The following applies: result in words. How it is done:
Referring to FIG. 21, hormone-induced, receptor-dependent luciferase reporter gene expression was assessed in the presence of a range of PC257 concentrations for androgen receptor (AR) and glucocorticoid receptor (GR) in MDAkb2 cells, and for progesterone receptor (PR) and estrogen receptor (ER) in T47D cells. The IC50 values for AR, GR and PR inhibition are shown.

For assay [6], the system named is glucocorticoid receptor (GR). Briefly: GR-dependent luciferase reporter assay in MDA-kb2 cells (50 nM DEX). The note with it: MDAkb2 cells, result in words. The method, then:
as §1, §2

For assay [7], the system named is FKBP52-regulated AR activity. The experiment in a line: DHT-induced AR-dependent luciferase reporter with or without exogenous FKBP52 in fkbp52-deficient cells. The following applies: presence or absence of exogenous FKBP52; fkbp52-deficient 22Rv1, HeLa and mouse embryonic fibroblast cells. The method, then: Referring to FIG. 22, dihydrotestosterone (DHT)-induced, androgen receptor-dependent luciferase reporter gene expression was assessed in the presence of a range of PC257 concentrations in the presence or absence of exogenous FKBP52 expression in fkbp52-deficient 22Rv1, HeLa, and mouse embryonic fibroblast cells. The IC50 values are indicated. […] PC257 is anticipated to target the PPIase pocket, a highly conserved enzymatic pocket among the FKBP family of proteins.

What is called IC50 is the midpoint of a concentration-inhibition curve. For `Cc1cc(C(=O)COC(=O)Cc2n[nH]c(=O)c3ccccc23)c(C)n1C[C@H]1COc2ccccc2O1` [PC257, [2-[1-[[(3S)-2,3-Dihydro-1,4-benzodioxin-3-yl]methyl]-2,5-dimethylpyrrol-3-yl]-2-oxoethyl] 2-(4-oxo-3H-phthalazin-1-yl)acetate], the “inhibitory activity on ER” value in assay [1] was “no inhibitory activity”. Moreover, the “endogenous AR-dependent gene expression (FKBP51/PSA protein)” value in assay [2] is “abrogates endogenous AR-dependent gene expression”. The AR nuclear translocation result in assay [3] is listed as “significantly inhibits AR nuclear translocation”. Moreover, in assay [4] (MDA-kb2 cell reporter assay, 200 pM DHT, full dose response, read-out: IC50, inhibition of AR activity), the IC50 was determined as 2000 nM. Moreover, the “inhibition of AR activity” value in assay [4] (MDA-kb2 cells, luciferase reporter, result in words) is reported as “inhibition of AR activity in the low micromolar range; also recorded: specifically abrogates”. Further, the “inhibition of PR activity” value in assay [5] is given as “specifically abrogates”. Moreover, the “inhibition of GR activity” value in assay [6] is “specifically abrogates”. For the same molecule, in assay [7], the “preference for FKBP52-regulated AR activity” value is reported as “preferentially targets FKBP52-regulated AR activity with increased potency”.
